From patent publication US5534533A, “Carboxylate derivatives exhibiting phospholipase A2 inhibitory activity” (Shionogi & Co., Ltd., priority 1993, dated 1996)
Structures can show the parent of a compound that is named as a salt.

Tests used:
Human secretory PLA2 = target: T1, Human secretory PLA2 (Homo sapiens, UniProt P14555); assay: Secretory PLA2 inhibitory activity (diheptanoyl thio PC substrate, absorbance at 405 nm); type: biochemical; conditions: diheptanoyl thio PC 1 mM, Triton X100 0.3 mM, pH 7.3, CaCl2 10 mM, 30 minutes, read-out: s-PLA2 Inhibition IC50
T1 sequence (P14555 21-144): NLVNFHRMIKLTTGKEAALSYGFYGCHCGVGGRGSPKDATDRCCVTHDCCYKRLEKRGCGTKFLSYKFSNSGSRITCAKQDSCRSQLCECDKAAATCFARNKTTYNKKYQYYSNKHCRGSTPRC
Experimental: Secretory PLA2 activity was assayed according to the method described in Penynolds L. J., Hughes L. L., Dennis E. A. et al. Anal. Biochem. 201,190-197 (1992).
Diheptanoyl thiophosphatidylcholine which was prepared according to the procedure described in the literature was used as a substrate. Human secretory PLA2 was used as an enzyme. The diheptanoyl thio PC (1 mM) was reacted with the human secretory PLA2 in the presence of Triton X100 (0.3 mM) and 5,5'-dithiobis-(2-nitrobenzoic acid) (125 μM) in Tris buffer (25 mM, pH 7.3), CaCl2 (10 mM), KCI (100 mM), bovine serum albumin (1.0 mg/ml), and then the change in absorbance at 405 nm at the time of 30 minutes after the reaction was assayed.
Inhibitory activity (%) was estimated by the formula: [(the change in absorbance with the inhibitor and PLA2 ·the change in absorbance with the inhibitor and without PLA2)/(the change in absorbance without the inhibitor and with PLA2 ·the change in absorbance without the inhibitor and PLA2)]×100.
IC50 value (μM) was calculated from graph showing inhibitory values on the vertical axis and log of concentrations of the inhibitor on the horizontal axis.

[1] = target: T2, intracellular PLA2 (cytosolic PLA2, cPLA2) (Homo sapiens, UniProt P47712); assay: Intracellular PLA2 (cPLA2) inhibitory activity (14C-arachidonyl phosphatidylcholine substrate); type: biochemical; conditions: 2 μM radiolabelled phosphatidylcholine, 1 μM dioleoylglycerol, 1 mM CaCl2, pH 7.4; read-out: c-PLA2 Inhibition IC50
T2 sequence (P47712 1-749): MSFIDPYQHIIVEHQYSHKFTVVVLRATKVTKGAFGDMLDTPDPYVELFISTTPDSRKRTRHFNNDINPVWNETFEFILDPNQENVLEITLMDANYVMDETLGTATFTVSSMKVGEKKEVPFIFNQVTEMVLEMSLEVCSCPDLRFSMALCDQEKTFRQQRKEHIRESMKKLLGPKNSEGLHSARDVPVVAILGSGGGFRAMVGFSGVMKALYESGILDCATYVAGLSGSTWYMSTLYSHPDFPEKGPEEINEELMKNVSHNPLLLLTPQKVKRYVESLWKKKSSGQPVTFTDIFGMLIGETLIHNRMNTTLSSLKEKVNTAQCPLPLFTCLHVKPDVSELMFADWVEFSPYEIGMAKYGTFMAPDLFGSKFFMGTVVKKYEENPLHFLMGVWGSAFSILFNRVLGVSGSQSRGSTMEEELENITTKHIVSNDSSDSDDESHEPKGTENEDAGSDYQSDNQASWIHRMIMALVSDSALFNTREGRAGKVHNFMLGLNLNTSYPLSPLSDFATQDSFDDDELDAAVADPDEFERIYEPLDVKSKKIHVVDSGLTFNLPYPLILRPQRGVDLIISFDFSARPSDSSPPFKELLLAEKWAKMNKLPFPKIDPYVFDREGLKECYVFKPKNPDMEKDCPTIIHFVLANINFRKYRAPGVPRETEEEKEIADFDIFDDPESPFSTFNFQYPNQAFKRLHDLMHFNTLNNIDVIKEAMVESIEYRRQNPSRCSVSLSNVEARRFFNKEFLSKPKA
Experimental: cPLA2 activity was assayed according to the method described in R. M. Kramer, E. F. Roberts, J. Manetta and J. E. Putnam, J. Biol. Chem., 268 (8), 5268-5272 (1991). Briefly, intracellular PLA2 activity was assayed using supersonic treated […] which contain 1-palmitoyl-2-[^14 C]arachidonyl-sn-glycero-3-phosphocholine and sn-1, 2-dioleoylglycerol at a molar ratio of 2:1. This test mixture contained 1 mM CaCl2, 2 mM dithiothreitol, 150 mM NaCl, 50 mM Hepes, pH 7.4 and 0.1 mg/ml BSA. A substrate is a 2 μM radioisotope labelled phosphatidylcholine ribosome containing 1 μM dioleoylglycerol. IC50 value is calculating in the same manner as in calculating it for secretory PLA2 inhibitory activity.

IC50 (Human secretory PLA2) | IC50 [1] | Structure (SMILES)
0.22 µM | 22 µM | COc1c(C)c(OC(=O)c2c(C)c(C)c(OCCCOc3ccc(C(=O)O)cc3)c(C)c2OC)c(C)c(C)c1C(N)=O [Example 47, 4-{4-[3-(4-Carboxyphenoxy)propoxy]-2-methoxy-3,5,6-trimethylbenzoyloxy}-2-methoxy-3,5,6-trimethylbenzamide]
14 µM | 9.4 µM | COc1c(C)c(OC(=O)c2c(C)c(C)c(OCCCOc3ccc(F)cc3F)c(C)c2OC)c(C)c(C)c1C(=O)O [Example 14, 4-[4-[3-(2,4-difluorophenoxy)propyloxy]-2-methoxy-3,5,6-trimethylphenylcarboxy]-2-methoxy-3,5,6-trimethylbenzoic acid]
5.7 µM | 16 µM | COc1c(C)c(OC(=O)c2c(C)c(C)c(OCCCN(S(C)(=O)=O)S(=O)(=O)c3ccc(F)cc3)c(C)c2OC)c(C)c(C)c1C(=O)O [Example 57, 4-{4-[3-Methylsulfonyl-(4-fluorophenyl)sulfonylaminopropoxy]-2-methoxy-3,5,6-trimethylbenzoyloxy}-2-methoxy-3,5,6-trimethylbenzoic Acid]
> 50 µM | 2.6 µM | COc1c(C(C)(C)C)cc(SCCCOc2c(C)c(C)c(C(=O)O)c(OC)c2C)cc1C(C)(C)C [Example 16, 4-[3-(3,5-Di-tert-butyl-4-methoxyphenylthio)propyloxy]-2-methoxy-3,5,6-trimethylbenzoic acid]
27 µM | 7.4 µM | COc1c(C)c(OC(=O)c2c(C)c(C)c(OCCCCCCOc3ccc(F)cc3)c(C)c2OC)c(C)c(C)c1C(=O)O [Example 4, 4-[4-[6-(4-Fluorophenoxy)hexyloxy]-2-methoxy-3,5,6-trimethylphenylcarboxy]-2-methoxy-3,5,6-trimethylbenzoic acid]
42 µM | 4.3 µM | COc1c(C)c(OC(=O)c2c(C)c(C)c(OCCCNc3ccc(C(F)(F)F)cc3)c(C)c2OC)c(C)c(C)c1C(=O)O [Example 22, 4-[4-[3-(4-Trifluoromethylphenylamino)propyloxy]-2-methoxy-3,5,6-trimethylphenylcarboxy]-2-methoxy-3,5,6 trimethylbenzoic acid hydrochloride]
7 µM | 24 µM | COc1c(C)c(OC(=O)c2c(C)c(C)c(OCCCOc3ccc(C(C)=O)cc3)c(C)c2OC)c(C)c(C)c1C(=O)O [Example 31, 4-{4-[3-(4-Acetylphenoxy)propoxy]-2-methoxy-3,5,6-trimethylbenzoyloxy}-2-methoxy-3,5,6-trimethylbenzoic Acid]
33 µM | > 50 µM | COc1c(C)c(OC(=O)c2c(C)c(C)c(OCCCNC(=O)c3ccccc3)c(C)c2OC)c(C)c(C)c1C(=O)O [Example 61, 4-[4-(3-Benzoylaminopropoxy)-2-methoxy-3,5,6-trimethylbenzoyloxy}-2-methoxy-3,5,6-trimethylbenzoic Acid]
32 µM | 3 µM | COc1c(C)c(OC(=O)c2c(C)c(C)c(OCCCCCCOc3ccc(C(F)(F)F)cc3)c(C)c2OC)c(C)c(C)c1C(=O)O [Example 3, 4-[4-[6-(4-Trifluoromethylphenoxy)hexyloxy]-2-methoxy-3,5,6-trimethylphenylcarboxy]-2-methoxy-3,5,6-trimethylbenzoic acid]
5.3 µM | 26 µM | COc1c(C)c(OC(=O)c2c(C)c(C)c(OCCCN(C)S(=O)(=O)c3ccc(F)cc3)c(C)c2OC)c(C)c(C)c1C(=O)O [Example 58, 4-{4-[3-Methyl-(4-fluorophenyl)sulfonylaminopropoxy]-2-methoxy-3,5,6-trimethylbenzoyloxy}-2-methoxy-3,5,6-trimethylbenzoic Acid]
13 µM | 1.5 µM | COc1c(C)c(OC(=O)c2c(C)c(C)c(OCCCOc3cc4c(cc3C(c3ccccc3)c3ccccc3)OCO4)c(C)c2OC)c(C)c(C)c1C(=O)O [Example 27, 4-{4-[3-(6-Benzhydrylbenzo[1, 3]dioxol-5-yloxy)-propoxy]-2-methoxy-3,5,6-trimethylbenzoyloxy}-2-methoxy-3,5,6-trimethylbenzoic Acid]
> 50 µM | 19 µM | COc1c(C)c(OCCCOc2ccc3ccccc3c2)c(C)c(C)c1C(=O)O [Example 18, 2-Methoxy-3,5,6-trimethyl-4-[3-(2-naphthyloxy)-propyloxy]benzoic acid]
14 µM | > 50 µM | COc1c(C)c(OC(=O)c2c(C)c(C)c(OCCCNS(=O)(=O)c3ccc(F)cc3)c(C)c2OC)c(C)c(C)c1C(=O)O [Example 56, 4-{4-[3-(4-Fluorophenyl)sulfonylaminopropoxy]-2-methoxy-3,5,6-trimethylbenzoyloxy}-2-methoxy-3,5,6 trimethylbenzoic Acid]
50 µM | > 50 µM | COc1c(C)c(OC(=O)c2c(C)c(C)c(OCCCS(=O)(=O)c3ccc(F)cc3)c(C)c2OC)c(C)c(C)c1C(=O)O [Example 36, 4-{4-[3-(4-Fluorobenzenesulfonyl)propoxy]-2-methoxy-3,5,6-trimethylbenzoyloxy}-2-methoxy-3,5,6-trimethylbenzoic Acid]
45 µM | 33 µM | COc1c(C)c(OC(=O)c2c(C)c(C)c(OCc3ccccc3)c(C)c2OC)c(C)c(C)c1C(=O)O [Example 9, 4-[4-Benzyloxy-2-methoxy-3,5,6-trimethylphenylcarboxy)2-methoxy-3,5,6-trimethylbenzoic acid]
9 µM | 12 µM | COc1c(C)c(OC(=O)c2c(C)c(C)c(OCCCCCCS(=O)(=O)c3ccc(F)cc3)c(C)c2OC)c(C)c(C)c1C(=O)O [Example 6, 4-[4-[6-(4-Fluorophenylsulfonyl)hexyloxy]-2-methoxy-3,5,6-trimethylphenylcarboxy]-2-methoxy-3,5,6-trimethylbenzoic acid]
12 µM | 14 µM | COc1ccc(OCCCOc2c(C)c(C)c(C(=O)Oc3c(C)c(C)c(C(=O)O)c(OC)c3C)c(OC)c2C)cc1 [Example 17, 4-[4-[3-(4-Methoxyphenoxy)propyloxy]-2-methoxy-3,5,6-trimethylphenylcarboxy]-2-methoxy-3,5,6-trimethylbenzoic acid]
7 µM | 5.9 µM | COc1cc(OC)cc(OCCCOc2c(C)c(C)c(C(=O)Oc3c(C)c(C)c(C(=O)O)c(OC)c3C)c(OC)c2C)c1 [Example 41, 4-{4-[3-(3,5-Dimethoxyphenoxy)propoxy]-2-methoxy-3,5,6-trimethylbenzoyloxy}-2-methoxy-3,5,6-trimethylbenzoic Acid]
12 µM | 6.6 µM | COc1c(C)c(OC(=O)c2c(C)c(C)c(OCCCOc3cccc(F)c3F)c(C)c2OC)c(C)c(C)c1C(=O)O [Example 37, 4-{4-[3-(2,3-Difluorophenoxy)propoxy]-2-methoxy-3,5,6-trimethylbenzoyloxy}-2-methoxy-3,5,6-trimethylbenzoic Acid]
> 50 µM | 2 µM | COc1c(C(C)(C)C)cc(SCCCCCCOc2c(C)c(C)c(C(=O)Oc3c(C)c(C)c(C(=O)O)c(OC)c3C)c(OC)c2C)cc1C(C)(C)C [Example 12, 4-[4-[6-(3,5-Di-tert-butyl-4-methoxyphenylthio)hexyloxy]-2-methoxy-3,5,6-trimethylphenylcarboxy]-2-methoxy-3,5,6-trimethylbenzoic acid]
